Test results taken from patent US8962630B2, “Pyrrolopyrimidine compounds and their uses” (Novartis AG, priority 2008, dated 2015).
Where two headings read alike, the source gives them in different places.

Columns and labels:
Assay type in all cases: biochemical
[1] = biological target: CDK4/cyclin D1 (Homo sapiens (Human), UniProt P11802); experiment: CDK4/Cyclin D1 enzymatic activity assay (Lance TR-FRET)
Method: A 384-well microtiter Lance TR-FRET (time-resolved-fluorescence energy transfer) endpoint assay was used for CDK4/cyclin D1 kinase activity measurements. The same assay was used for IC50 determination of small molecule inhibitors. In general, the kinase reactions were carried out in 30 μL volumes in the reaction solution containing the following: 2 uL compound (in […]), 18 uL CDK4/cyclin D1 in Assay Buffer (50 mM HEPES, pH 7.5, 5 mM MgCl2, 2 mM MnCl2, 1 mM DTT, 0.05% BSA, 0.02% Tween-20), 10 uL of the mixture of pRb152 and ATP. The final reaction mixture contains compound (inhibitor) with the concentration varying from 0.005-10 μM, 2% DMSO, 0.3 nM CDK4/cyclin D1, 175 nM pRb152, and 3 μM ATP (Amersham Pharmacia, Cat. No. 27-2056-01). All reactions were run at room temperature in 384-well white flat-bottom OptiPlates (Perkin Elmer, Cat. No. 6007290) for 60 min then were quenched by the addition of 10 μL of 120 mM EDTA. The signals were captured by the addition of 40 μL of the Detection Solution containing the following: Detection Buffer (50 mM HEPES, pH 7.5, 30 mM EDTA, 0.1% Triton x-100, 0.05% BSA), 70 ng/mL anti-phospho-pRb(S780) (Cell Signaling Technology, Cat. No. 9307S), 1 nM Lance Eu-W1024-Rabbit anti-IgG (Perkin Elmer, Cat. No. AD0082), and 20 nM SureLight™ Allophycocyanin-Streptavidin (Perkin Elmer, Cat. No. CR130-100). The resulted solutions were incubated at room temperature for 2 hours before read on the Evision Multilabel Reader (Perkin Elmer, Envision 2102-0010).
CDk4/cyclin D1 recombinant protein used in the enzymatic activity assay was prepared by coexpressing pDEST10-CDK4 (N-terminal His6) and pFastBacDual-GST-hCyclinDl viruses in Sf21 cells.

[2] = biological target: CDK1/cyclin B (Homo sapiens (Human), UniProt P06493); experiment: CDK1/Cyclin B enzymatic activity assay (IMAP-FP)
Excerpt: A 384-well microtiter IMAP-FPT™ (Molecular Devices Trade Mark Technology) endpoint assay was used for CDK1/cyclin B kinase activity measurements. The same assay was used for IC50 determination of small molecule inhibitors.

[3] = biological target: CDK2/cyclin A (Homo sapiens (Human), UniProt P24941); experiment: CDK2/Cyclin A enzymatic activity assay (IMAP-FP)
[4] = Table 2, 3 μM ATP, read-out: CDK4
[5] = Table 2, 20 μM ATP, read-out: CDK1

Chain of CDK1/cyclin B (P06493 whole entry, species assumed): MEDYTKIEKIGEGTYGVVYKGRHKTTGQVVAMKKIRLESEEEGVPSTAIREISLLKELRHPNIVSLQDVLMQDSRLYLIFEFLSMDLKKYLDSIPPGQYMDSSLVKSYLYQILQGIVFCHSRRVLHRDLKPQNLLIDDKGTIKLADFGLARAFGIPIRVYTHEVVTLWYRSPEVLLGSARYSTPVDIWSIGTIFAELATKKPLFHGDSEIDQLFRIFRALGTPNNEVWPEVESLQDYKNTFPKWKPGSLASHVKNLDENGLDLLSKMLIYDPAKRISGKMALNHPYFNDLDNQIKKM
Chain of CDK1/cyclin B (P14635 whole entry partner, species assumed): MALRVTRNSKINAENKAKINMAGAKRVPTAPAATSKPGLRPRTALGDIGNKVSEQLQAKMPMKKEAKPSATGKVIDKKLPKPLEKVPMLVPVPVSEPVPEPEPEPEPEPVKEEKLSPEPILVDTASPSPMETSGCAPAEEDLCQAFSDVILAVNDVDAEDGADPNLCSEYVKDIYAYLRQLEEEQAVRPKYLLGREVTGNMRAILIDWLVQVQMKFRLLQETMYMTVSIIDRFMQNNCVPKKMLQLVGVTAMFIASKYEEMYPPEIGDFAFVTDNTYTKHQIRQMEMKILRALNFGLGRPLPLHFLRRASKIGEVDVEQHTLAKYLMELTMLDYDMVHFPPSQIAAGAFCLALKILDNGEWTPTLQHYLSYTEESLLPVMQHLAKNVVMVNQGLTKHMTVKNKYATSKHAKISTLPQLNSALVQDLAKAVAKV
Chain of CDK4/cyclin D1 (P11802 whole entry): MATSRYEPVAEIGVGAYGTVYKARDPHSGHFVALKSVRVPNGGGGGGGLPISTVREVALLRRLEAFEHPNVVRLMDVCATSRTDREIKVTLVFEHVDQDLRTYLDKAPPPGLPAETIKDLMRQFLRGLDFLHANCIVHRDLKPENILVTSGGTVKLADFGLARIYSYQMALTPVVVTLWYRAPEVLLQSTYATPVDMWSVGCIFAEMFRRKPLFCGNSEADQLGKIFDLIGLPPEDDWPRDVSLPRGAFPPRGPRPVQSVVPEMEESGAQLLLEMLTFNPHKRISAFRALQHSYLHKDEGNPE
Chain of CDK4/cyclin D1 (P24385 whole entry partner): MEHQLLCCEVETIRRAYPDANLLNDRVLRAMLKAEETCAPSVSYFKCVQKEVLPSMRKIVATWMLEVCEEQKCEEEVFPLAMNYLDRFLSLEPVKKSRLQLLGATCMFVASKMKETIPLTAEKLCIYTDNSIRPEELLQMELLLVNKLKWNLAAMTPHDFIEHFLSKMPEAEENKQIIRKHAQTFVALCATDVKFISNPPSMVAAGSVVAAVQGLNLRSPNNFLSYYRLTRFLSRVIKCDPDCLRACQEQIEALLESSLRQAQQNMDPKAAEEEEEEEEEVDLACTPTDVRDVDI

Compound | IC50 [1, 4] [µM] | IC50 [2, 5] [µM] | IC50 ([3]; Table 2, read-out: CDK2) [µM] | IC50 ([1]; Table 4, read-out: IC50 (μM) CDK4) [µM] | IC50 ([2]; Table 4, read-out: IC50 (μM) CDK1) [µM] | IC50 ([3]; Table 4, read-out: IC50 (μM) CDK2) [µM]
COCCN1CCN(Cc2ccc(Nc3ncc4cc(C(=O)N(C)C)n(C5CCCC5)c4n3)nc2)CC1 [Example 77, 7-Cyclopentyl-2-{5-[4-(2-methoxy-ethyl)-piperazin-1-ylmethyl]-pyridin-2-ylamino}-7H-pyrrolo[2,3-d]pyrimidine-6-carboxylic acid dimethylamide] | 0.01 to 0.1 | > 15 | > 15 | – | – | –
CN(C)C(=O)c1cc2cnc(Nc3ccc(N4CCN(CC(N)=O)CC4)cn3)nc2n1C1CCCC1 [Example 10, 2-[5-(4-Carbamoylmethyl-piperazin-1-yl)-pyridin-2-ylamino]-7-cyclopentyl-7H-pyrrolo[2,3-d]pyrimidine-6-carboxylic acid dimethylamide] | 0.01 to 0.1 | > 15 | > 15 | – | – | –
O=C(c1cc2cnc(Nc3ccc(N4CCNCC4)cc3)nc2n1C1CCCC1)N1CCC1 [Example 201, reference compound] | – | – | – | 0.11 | 7.5 | 10.3
CN(C)C(=O)c1cc2cnc(Nc3ccc(N4CCN(C(=O)C5CC5)CC4)cn3)nc2n1C1CCCC1 [Example 27, 7-Cyclopentyl-2-[5-(4-cyclopropanecarbonyl-piperazin-1-yl)-pyridin-2-ylamino]-7H-pyrrolo[2,3-d]pyrimidine-6-carboxylic acid dimethylamide] | 0.01 to 0.1 | > 15 | > 15 | – | – | –
CC(CO)N1CCN(c2ccc(Nc3ncc4cc(C(=O)N(C)C)n(C5CCCC5)c4n3)nc2)CC1 (stereo not drawn) [Example 36, 7-Cyclopentyl-2-{5-[4-(2-hydroxy-1-methyl-ethyl)-piperazin-1-yl]-pyridin-2-ylamino}-7H-pyrrolo[2,3-d]pyrimidine-6-carboxylic acid dimethylamide] | 0.01 to 0.1 | > 15 | > 15 | – | – | –
CCC(C)CN1CCN(c2ccc(Nc3ncc4cc(C(=O)N(C)C)n(C5CCCC5)c4n3)nc2)CC1 (stereo not drawn) [Example 99, 7-Cyclopentyl-2-{5-[4-(2-methyl-butyl)-piperazin-1-yl]-pyridin-2-ylamino}-7H-pyrrolo[2,3-d]pyrimidine-6-carboxylic acid dimethylamide] | 0.01 to 0.1 | > 15 | > 15 | – | – | –
C[C@H]1CN(c2ccc(Nc3ncc4cc(C(=O)N(C)C)n(C5CCCC5)c4n3)nc2)CCN1 [Example 17, 7-Cyclopentyl-2-[5-((S)-3-methyl-piperazin-1-yl)-pyridin-2-ylamino]-7H-pyrrolo[2,3-d]pyrimidine-6-carboxylic acid dimethylamide] | 0.01 to 0.1 | > 15 | > 15 | – | – | –
CN(C)C(=O)c1cc2cnc(Nc3ccc(N4CCN(C5CCCC5)CC4)cn3)nc2n1C1CCCC1 [Example 79, 7-Cyclopentyl-2-[5-(4-cyclopentyl-piperazin-1-yl)-pyridin-2-ylamino]-7H-pyrrolo[2,3-d]pyrimidine-6-carboxylic acid dimethylamide] | 0.01 to 0.1 | > 15 | > 15 | – | – | –
CN(C)C(=O)c1cc2cnc(Nc3ccc(N4CCN(C(=O)N5CCOCC5)CC4)cn3)nc2n1C1CCCC1 [Example 38, 7-Cyclopentyl-2-{5-[4-(morpholine-4-carbonyl)-piperazin-1-yl]-pyridin-2-ylamino}-7H-pyrrolo[2,3-d]pyrimidine-6-carboxylic acid dimethylamide] | 0.01 to 0.1 | > 15 | > 15 | – | – | –
CN(C)C(=O)c1cc2cnc(Nc3ccc(N4CCN(C(=O)CN)CC4)cn3)nc2n1C1CCCC1 [Example 12, 2-{5-[4-(2-Amino-acetyl)-piperazin-1-yl]-pyridin-2-ylamino}-7-cyclopentyl-7H-pyrrolo[2,3-d]pyrimidine-6-carboxylic acid dimethylamide] | 0.01 to 0.1 | > 15 | > 15 | – | – | –
CC(=O)N1CCN(c2ccc(Nc3ncc4cc(C(=O)N(C)C)n(C5CCCC5)c4n3)nc2)CC1 [Example 7, 2-[5-(4-Acetylpiperazin-1-yl)-pyridin-2-ylamino]-7-cyclopentyl-7H-pyrrolo[2,3-d]pyrimidine-6-carboxylic acid dimethylamide] | 0.01 to 0.1 | > 15 | > 15 | – | – | –
CN(C)C(=O)c1cc2cnc(Nc3ccc(N4CCN(C(=O)CC5CCCCC5)CC4)cn3)nc2n1C1CCCC1 [Example 90, 2-{5-[4-(2-Cyclohexyl-acetyl)-piperazin-1-yl]-7H-pyridin-2-ylamino}-7-cyclopentyl-7H-pyrrolo[2,3-d]pyrimidine-6-carboxylic acid dimethylamide] | 0.01 to 0.1 | > 15 | > 15 | – | – | –
CN(C)C(=O)c1cc2cnc(Nc3ccc(C(=O)N4CCN(CCO)CC4)cn3)nc2n1C1CCCC1 [Example 96, 7-Cyclopentyl-2-{5-[4-(2-hydroxy-ethyl)-piperazine-1-carbonyl]-pyridin-2-ylamino}-7H-pyrrolo[2,3-d]pyrimidine-6-carboxylic acid dimethylamide] | 0.01 to 0.1 | > 15 | > 15 | – | – | –
CC(C(=O)O)N1CCN(c2ccc(Nc3ncc4cc(C(=O)N(C)C)n(C5CCCC5)c4n3)nc2)CC1 (stereo not drawn) [Example 103, 2-{4-[6-(7-Cyclopentyl-6-dimethylcarbamoyl-7H-pyrrolo[2,3-d]pyrimidin-2-ylamino)-pyridin-3-yl]-piperazin-1-yl}-propionic acid] | 0.01 to 0.1 | > 15 | > 15 | – | – | –
CN(C)C(=O)c1cc2cnc(Nc3ccc(N4CCN(C(=O)N5CCCCC5)CC4)cn3)nc2n1C1CCCC1 [Example 94, 7-Cyclopentyl-2-{5-[4-(piperidine-1-carbonyl)-piperazin-1-yl]-pyridin-2-ylamino}-7H-pyrrolo[2,3-d]pyrimidine-6-carboxylic acid dimethylamide] | 0.01 to 0.1 | > 15 | > 15 | – | – | –
CN(C)C(=O)c1cc2cnc(Nc3cnc(N4CCN(CCO)CC4)cn3)nc2n1C1CCCC1 [Example 15, 7-Cyclopentyl-2-[4-(2-hydroxy-ethyl)-3,4,5,6-tetrahydro-2H-[1,2]′bipyrazinyl-5′-ylamino]-7H-pyrrolo[2,3-d]pyrimidine-6-carboxylic acid dimethylamide] | 0.1 to 1 | > 15 | > 15 | – | – | –
CN(C)C(=O)c1cc2cnc(Nc3ccc(N4CCN(CCF)CC4)cn3)nc2n1C1CCCC1 [Example 86, 7-Cyclopentyl-2-{5-[4-(2-fluoro-ethyl)-piperazin-1-yl]-pyridin-2-ylamino}-7H-pyrrolo[2,3-d]pyrimidine-6-carboxylic acid dimethylamide] | 0.01 to 0.1 | > 15 | > 15 | – | – | –
CN(C)C(=O)c1cc2cnc(Nc3ccc(CN4CCN(C(=O)CN)CC4)cn3)nc2n1C1CCCC1 [Example 65, 2-{5-[4-(2-Amino-acetyl)-piperazin-1-ylmethyl]-pyridin-2-ylamino}-7-cyclopentyl-7H-pyrrolo[2,3-d]pyrimidine-6-carboxylic acid dimethylamide] | 0.01 to 0.1 | > 15 | > 15 | – | – | –
CN(C)C(=O)c1cc2cnc(Nc3ccc(N4CCN(C(=O)N5CCCC5)CC4)cn3)nc2n1C1CCCC1 [Example 22, 7-Cyclopentyl-2-{5-[4-(pyrrolidine-1-carbonyl)-piperazin-1-yl]-pyridin-2-ylamino}-7H-pyrrolo[2,3-d]pyrimidine-6-carboxylic acid dimethylamide] | 0.01 to 0.1 | > 15 | > 15 | – | – | –
c1ncc(-c2cc3cnc(Nc4ccc(N5CCNCC5)cn4)nc3n2C2CCCC2)o1 [Example 11, (7-Cyclopentyl-6-oxazol-5-yl-7H-pyrrolo[2,3-d]pyrimidin-2-yl)-(5-piperazin-1-yl-pyridin-2-yl)-amine] | 0.001 to 0.01 | 1.3 | 3.5 | – | – | –
CC1CN(c2ccc(Nc3ncc4cc(C(=O)N(C)C)n(C5CCCC5)c4n3)nc2)CC(C)N1 (stereo not drawn) [Example 24, 7-Cyclopentyl-2-[5-(3,5-dimethyl-piperazin-1-yl)-pyridin-2-ylamino]-7H-pyrrolo[2,3-d]pyrimidine-6-carboxylic acid dimethylamide] | 0.01 to 0.1 | > 15 | > 15 | – | – | –
COC(=O)C(C)N1CCN(c2ccc(Nc3ncc4cc(C(=O)N(C)C)n(C5CCCC5)c4n3)nc2)CC1 (stereo not drawn) [Example 101, 2-{4-[6-(7-Cyclopentyl-6-dimethylcarbamoyl-7H-pyrrolo[2,3-d]pyrimidin-2-ylamino)-pyridin-3-yl]-piperazin-1-yl}-propionic acid methyl ester] | 0.1 to 1 | > 15 | > 15 | – | – | –
